From patent US20120225119A1, “THERAPEUTIC COMBINATION FOR PAINFUL MEDICAL CONDITIONS” (UCB Pharma GmbH, priority 2005, published 2012)
Entries after “also recorded” stand apart in the source; their conditions may differ.

How the values were obtained:
[1] = test system: TNF-induced reduction of grip strength; assay: Biceps muscle grip strength after TNF-induced muscle pain; format: in vivo, rat
Method: (§1) Adult male Sprague Dawley rats with a body weight of 250 g to 300 g were used (supplier: Charles River, Sulzfeld, Germany). Animals were group-housed (3 animals per cage) and maintained in a room with controlled temperature (21-22° C.) and a reversed light-dark cycle (12 h/12 h) with food and water available ad libitum. All experiments were approved by the Bavarian State animal experimentation committee and carried out in accordance with its regulations.
(§2) Recombinant rat tumor necrosis factor alpha (herein referred to as TNF) was obtained from R&D Systems, Minneapolis, Minn., U.S.A. TNF was diluted in 0.9% NaCl and used in a concentration of 1 μg in 50 μl. Injections were performed in short halothane narcosis with a 30 g needle bilaterally into the gastrocnemius or into the biceps brachii muscle. All rats were used to the behavioral tests before injections and baseline values were recorded over three test days.
Grip strength of the forelimbs was tested with a digital grip force meter (DFIS series, Chatillon, Greensboro, N.C., U.S.A.). The rat was positioned to grab the grid with the forelimbs and was gently pulled so that the grip strength could be recorded. Means of three trials were calculated. The effect of the TNF treatment was calculated for each animal separately and only animals with a significant TNF effect were included for further analysis.
Rats were injected with TNF into the biceps brachii muscle at 8 am. Six hours later, grip strength of the forelimbs was tested with a digital grip force meter. Test drug was administered, and grip strength was again tested after 30 to 60 minutes.
(§3) The rats, initially 10 per group, were treated with either 3, 10 or 30 mg/kg lacosamide, 2 mg/kg metamizol, 30 or 100 mg/kg pregabalin, 100 mg/kg gabapentin, or the NaCl vehicle, i.p. (intraperitoneally). Volume of i.p. injections was 0.5 ml. A pilot study was performed to confirm that i.m. (intramuscular) injection of 1 μg TNF into the gastrocnemius muscle was sufficient to induce pressure hyperalgesia.
(§4) Data are shown in graphs displaying means and standard errors of the means (SEM). Pre- and post-treatment data were compared using ANOVA (analysis of variance) and a Tukey post hoc test. Means of treatment groups were compared using a one-way ANOVA and Dunnett's post hoc test. Maximal possible effects (MPE) were calculated for all types of treatment.

[2] = test system: muscle pressure hyperalgesia induced by TNF; assay: Withdrawal threshold to muscle pressure (Randall-Selitto) after TNF injection into gastrocnemius muscle; format: in vivo, rat; details: for full reversal of the muscle hyperalgesia: pregabalin 30 and 100 mg/kg
Method: as §1, §2
Mechanical withdrawal thresholds to muscle pressure were measured with an analgesimeter (Ugo Basile, Comerio, Italy). The rat was allowed to crawl into a sock which helps the rat to relax. The hind limbs were positioned such that an increasing pressure could be applied onto the gastrocnemius muscle (maximum 250 g). The pressure needed to elicit withdrawal was recorded. Means of 3 trials for each hind limb were calculated (interstimulus interval of >30 sec). Only animals with a significant TNF effect were included for further analysis.
Rats were injected with TNF into the gastrocnemius muscle at 2 pm. Eighteen hours later, rats were tested for pressure hyperalgesia pre- and post-administration of the test drug. Rats were tested for pressure hyperalgesia 30 to 60 minutes after drug administration.
as §3, §4

[3] = test system: monosodium iodoacetate-induced mechanical hyperalgesia; assay: Mechanical hyperalgesia (Randall-Selitto paw pressure) in iodoacetate rat model of osteoarthritis; format: in vivo; details: for paw pressure withdrawal threshold compared to iodoacetate/vehicle treated animals: day 3
[4] = test system: formalin-induced flinching and licking of the affected paw; assay: Rat formalin paw test (late phase); format: in vivo; details: for effect on time spent licking: lacosamide 10 mg/kg i.p.
Method: Rats were given an intraplantar injection of 5% formalin (50 μl) into the posterior left paw. This treatment induces a recognizable flinching and licking response of the affected paw in control animals. The number of flinches was counted for 15 minutes, beginning 20 minutes after injection of formalin. The time spent licking the affected paw was also recorded.
Male Rj: Wistar (Han) rats, 10 per group, weighing 100-130 g at the beginning of the experiments were studied per group. The test was performed blind. […]
Lacosamide (10 and 20 mg/kg), memantine (4 and 8 mg/kg), combinations of lacosamide (10 and 20 mg/kg) with memantine (4 and 8 mg/kg), and vehicle were administered i.p. 10 minutes before injection of formalin.
Lacosamide (10 and 20 mg/kg), naproxen (8 and 16 mg/kg), combinations of lacosamide (10 and 20 mg/kg) with […] (8 and 16 mg/kg), and vehicle were administered i.p. 10 minutes before injection of formalin. Morphine (8 mg/kg) was included as a comparative treatment.

[5] = test system: monosodium iodoacetate-induced tactile allodynia; assay: Tactile allodynia (von Frey filaments) in iodoacetate rat model of osteoarthritis; format: in vivo; details: day 3 and day 7
[6] = lacosamide 10 and 30 mg/kg i.p.
[7] = pregabalin 30 and 100 mg/kg i.p.

Compound: NCC1(CC(=O)O)CCCCC1 [Gabapentin]
- MPE (maximal possible effect) on biceps muscle grip strength, FIG. 4 ([1]; 100 mg/kg i.p.): significantly different from vehicle
- reversal of TNF-induced reduction of grip strength ([1]; 100 mg/kg i.p.): significant reversal; also recorded: improved grip strength
- MPE (maximal possible effect) on muscle pressure hyperalgesia, FIG. 2 ([2]; gabapentin 100 mg/kg i.p.): significantly different from vehicle
- reversal of muscular mechanical hyperalgesia (withdrawal threshold to muscle pressure) ([2]; gabapentin 100 mg/kg i.p.): significant reversal
- full reversal of the muscle hyperalgesia ([2]; gabapentin 100 mg/kg i.p.): Neither pregabalin nor gabapentin led to a full reversal

Compound: COC[C@@H](NC(C)=O)C(=O)NCc1ccccc1 [Lacosamide, (R)-2-acetamido-N-benzyl-3-methoxypropionamide]
- grip strength test indicative of mechanical allodynia ([1]; lacosamide 10 mg/kg i.p.): reversed the effect of TNF
- MPE (maximal possible effect) on biceps muscle grip strength, FIG. 4 [1, 6]: significantly different from vehicle
- reversal of TNF-induced reduction of grip strength [1, 6]: significant reversal
- paw pressure withdrawal threshold compared to iodoacetate/vehicle treated animals ([3]; lacosamide 3 mg/kg p.o.): increase in paw pressure withdrawal threshold
- mechanical hyperalgesia ([3]; lacosamide 10 mg/kg p.o., day 14): did not show a statistically significant effect
- mechanical hyperalgesia ([3]; lacosamide at all doses tested (3, 10 and 30 mg/kg p.o.), day 7): reduced mechanical hyperalgesia
- mechanical hyperalgesia during the post-inflammatory period ([3]; lacosamide p.o.): inhibited mechanical hyperalgesia
- effect on time spent licking ([4]; Example 6): no clear effects
- effect on time spent licking ([4]; Example 7): no clear effects
- effect on number of flinches as compared with vehicle controls ([4]; Example 7, lacosamide 10 and 20 mg/kg i.p.): did not clearly affect
- reversal of muscular mechanical hyperalgesia (withdrawal threshold to muscle pressure) ([2]; lacosamide 30 mg/kg i.p., 30 to 60 minutes after drug): complete reversal; also recorded: full reversal
- muscle hyperalgesia induced by TNF injection in the paw pressure test ([2]; lacosamide 3, 10 and 30 mg/kg i.p.): dose-dependently improved
- MPE (maximal possible effect) on muscle pressure hyperalgesia, FIG. 2 [2, 6]: significantly different from vehicle
- tactile allodynia of iodoacetate-treated rats ([5]; lacosamide 30 mg/kg p.o.): improved

Compound: CC12CC3CC(C)(C1)CC(N)(C3)C2 [Memantine]
- effect on number of flinches as compared with vehicle controls ([4]; Example 6, memantine 4 and 8 mg/kg i.p.): did not clearly affect

Compound: CN1CC[C@]23c4c5ccc(O)c4O[C@H]2[C@@H](O)C=C[C@H]3[C@H]1C5 [Morphine]
- paw pressure withdrawal threshold compared to iodoacetate/vehicle treated animals ([3]; morphine 3 mg/kg s.c.): increase in paw pressure withdrawal threshold
- mechanical hyperalgesia ([3]; morphine 3 mg/kg s.c., day 7): reduced mechanical hyperalgesia
- effect on number of flinches and time spent licking as compared with vehicle controls ([4]; Example 4, morphine 2 and 4 mg/kg i.p., effects did not reach statistical significance): dose-dependently decreased
- effect on flinching and time spent licking as compared with vehicle controls ([4]; Example 7, morphine 8 mg/kg i.p.): eliminated flinching and the time spent licking
- tactile allodynia of iodoacetate-treated rats ([5]; morphine 3 mg/kg s.c.): improved

Compound: COc1ccc2cc([C@H](C)C(=O)O)ccc2c1 [Naproxen]
- effect on number of flinches or time spent licking as compared with vehicle controls ([4]; Example 7, naproxen 8 and 16 mg/kg i.p.): did not clearly affect

Compound: O=C(O)Cc1ccccc1Nc1c(Cl)cccc1Cl [diclofenac]
- paw pressure withdrawal threshold compared to iodoacetate/vehicle treated animals ([3]; diclofenac 30 mg/kg s.c.): increase in paw pressure withdrawal threshold
- mechanical hyperalgesia ([3]; diclofenac 30 mg/kg s.c., day 7): reduced mechanical hyperalgesia

Compound: Cc1c(N(C)CS(=O)(=O)[O-])c(=O)n(-c2ccccc2)n1C.[Na+] [metamizol]
- MPE (maximal possible effect) on biceps muscle grip strength, FIG. 4 ([1]; metamizol 2 mg/kg i.p.): significantly different from vehicle
- reversal of TNF-induced reduction of grip strength ([1]; metamizol 2 mg/kg i.p.): significant reversal
- MPE (maximal possible effect) on muscle pressure hyperalgesia, FIG. 2 ([2]; metamizol 2 mg/kg i.p.): significantly different from vehicle
- reversal of muscular mechanical hyperalgesia (withdrawal threshold to muscle pressure) ([2]; metamizol 2 mg/kg i.p.): complete reversal

Compound: CC(C)C[C@H](CN)CC(=O)O [pregabalin]
- MPE (maximal possible effect) on biceps muscle grip strength, FIG. 4 ([1]; 100 mg/kg i.p.): significantly different from vehicle
- reversal of TNF-induced reduction of grip strength ([1]; 100 mg/kg i.p.): significant reversal; also recorded: improved grip strength
- MPE (maximal possible effect) on muscle pressure hyperalgesia, FIG. 2 [2, 7]: significantly different from vehicle
- reversal of muscular mechanical hyperalgesia (withdrawal threshold to muscle pressure) [2, 7]: significant reversal
- full reversal of the muscle hyperalgesia ([2]; gabapentin 100 mg/kg i.p.): Neither pregabalin nor gabapentin led to a full reversal
